From patent US7459482B2, “Agent for treatment of cisplatin-resistant cancer” (Dainippon Sumitomo Pharma Co., Ltd., priority 2000, dated 2008)

Tested on: H4-II-E/CDDP cells
Assay: Cell proliferation inhibitory effects after treating for 7 days, WST-1 assay; resistance of H4-II-E/CDDP cells in comparison with H4-II-E cells
Format: cell-based, rat
Conditions: for resistance of H4-II-E/CDDP cells to the drug: H4-II-E/CDDP cells vs H4-II-E cells
Description: Rat hepatic cancer H4-II-E was obtained from Dainippon Pharmaceutical Co., Ltd. The H4-II-E cells were cultured in MEM medium, during which the concentration of CDDP was increased stepwise from 0.1 μg/ml to 1.0 μg/ml over a period of about one year, by which method, the CDDP resistant cell line (H4-II-E/CDDP) was prepared. The cells used in the experiment were those obtained by subculturing in a CDDP-containing MEM medium (CDDP 1.0 μg/ml) in vitro.
The cell proliferation inhibitory effects of cisplatin to H4-II-E cells and H4-II-E/CDDP cells after treating for 7 days were evaluated by WST-1 assay.

| Compound | resistance of H4-II-E/CDDP cells in comparison with H4-II-E cells (7 days treatment, WST-1 assay) | resistance of H4-II-E/CDDP cells to the drug |
| --- | --- | --- |
| N.N.[Cl][Pt][Cl] [cisplatin, Cisplatin] | about 10 folds | – |
| COc1cccc2c1C(=O)c1c(O)c3c(c(O)c1C2=O)C[C@@](O)(C(=O)CO)C[C@@H]3O[C@H]1C[C@H](N)[C@H](O)[C@H](C)O1 [doxorubicin] | – | did not show any resistance |
| COc1cc([C@@H]2c3cc4c(cc3[C@@H](O[C@@H]3O[C@@H]5CO[C@@H](C)O[C@H]5[C@H](O)[C@H]3O)[C@H]3COC(=O)[C@H]23)OCO4)cc(OC)c1O [etoposide] | – | did not show any resistance |
